From patent publication US20250230193A1, “CYCLIC COMPOUND HAVING SELECTIVE KRAS INHIBITORY EFFECT ON HRAS AND NRAS” (CHUGAI SEIYAKU KABUSHIKI KAISHA, priority 2022, published 2025)
*1 amine or outer side, *2 acyl side, *3 side chain or, on linkers, in order; H or OH if unused. Where a SMILES comes first, the peptide text is derived from it. Bridges are numbered along the chain shown (N, C = ends). [ ]: non-standard residue; d: D form. The star is where a group is joined. hPhe(3-Cl-4-CF3) = N[C@@H](CCc1ccc(C(F)(F)F)c(Cl)c1)C(=O)O; NPrPhe(4-CF3) = CCCN[C@@H](Cc1ccc(C(F)(F)F)cc1)C(=O)O; X5 = CCCN([C@H](C(=O)[*:2])C1CCCC1)[*:1]; NMeGly(cPent) = CN[C@H](C(=O)O)C1CCCC1; Pro(4,4-F2) = O=C(O)[C@@H]1CC(F)(F)CN1; Pro(4,4-Me2) = CC1(C)CN[C@H](C(=O)O)C1; NMeD = CN[C@@H](CC(=O)O)C(=O)O; NMeL = CN[C@@H](CC(C)C)C(=O)O; Morpholide = C1CN(*)CCO1; Ac5c = NC1(C(=O)O)CCCC1; Aze = O=C(O)[C@@H]1CCN1; Sar = CNCC(=O)O

Experiments:
[1] = biological target: GDP-bound NRAS wild-type protein (Homo sapiens, UniProt P01111); experiment: Binding to NRAS by surface plasmon resonance (SPR), Single Cycle Kinetics
[2] = biological target: GDP-bound HRAS wild-type protein (Homo sapiens, UniProt P01112); experiment: Binding to HRAS by surface plasmon resonance (SPR), Single Cycle Kinetics
Chain of GDP-bound HRAS wild-type protein (P01112 whole entry): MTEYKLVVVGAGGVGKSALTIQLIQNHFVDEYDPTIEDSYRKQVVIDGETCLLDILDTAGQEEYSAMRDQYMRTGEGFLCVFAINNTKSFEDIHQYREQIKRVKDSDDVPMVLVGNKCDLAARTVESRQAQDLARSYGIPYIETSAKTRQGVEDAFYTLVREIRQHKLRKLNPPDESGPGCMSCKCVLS

Chain of GDP-bound NRAS wild-type protein (P01111 whole entry): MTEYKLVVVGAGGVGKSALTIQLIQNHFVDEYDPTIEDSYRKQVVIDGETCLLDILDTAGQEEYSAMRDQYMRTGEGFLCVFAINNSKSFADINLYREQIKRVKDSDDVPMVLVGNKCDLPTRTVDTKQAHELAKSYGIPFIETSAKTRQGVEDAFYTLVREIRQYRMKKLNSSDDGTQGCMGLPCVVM

## CCCN1C(=O)CN(C)C(=O)CN(C)C(=O)[C@H]([C@@H](C)CC)NC(=O)[C@H](CC(C)C)N(C)C(=O)C[C@@H](C(=O)N(C)C)N(C)C(=O)[C@H](C2CCCC2)N(C)C(=O)C2(CCCC2)NC(=O)[C@@H]2CC(F)(F)CN2C(=O)[C@H](CCc2ccc(C(F)(F)F)c(Cl)c2)NC(=O)CN(C)C(=O)[C@@H]1Cc1ccc(C(F)(F)F)cc1 [PP0413] ([NMeL]I[Sar][Sar][NPrPhe(4-CF3)][Sar][hPhe(3-Cl-4-CF3)][Pro(4,4-F2)][Ac5c][NMeGly(cPent)][NMeD]-NMe2; lactam N-11)
[1]; KD ratio NRAS/KRAS, SPR
  NRAS/KRAS (ratio of KD value with respect to GDP-bound NRAS wild-type protein to KD value with respect to KRAS): C (A compound having a KD ratio of 0.1 or more and less than 3 is denoted as C)
[2]; KD ratio HRAS/KRAS, SPR
  HRAS/KRAS (ratio of KD value with respect to GDP-bound HRAS wild-type protein to KD value with respect to KRAS): C (A compound having a KD ratio of 0.1 or more and less than 3 is denoted as C)

## CCO[C@@H]1C[C@H]2C(=O)NC3(CCCC3)C(=O)N(C)[C@@H](C3CCCC3)C(=O)N(C)[C@H](C(=O)N(C)CC)CC(=O)N(C)[C@@H](CC(C)C)C(=O)N[C@@H]([C@@H](C)CC)C(=O)N(C)CC(=O)N(C)[C@H]3C/C=C\CCN(C3=O)[C@@H](Cc3ccc(C(F)(F)F)cc3)C(=O)N(C)CC(=O)N[C@@H](CCc3cc(F)c(C(F)(F)F)c(F)c3)C(=O)N2C1 [PP1574, (2S,8S,12R,14S,20S,23S,27S,30S,36S,38Z)-20-cyclopentyl-8-[2-[3,5-difluoro-4-(trifluoromethyl)phenyl]ethyl]-12-ethoxy-N-ethyl-27-isobutyl-N,4,19,22,26,32,35-heptamethyl-30-[(1S)-1-methylpropyl]-3,6,9,15,18,21,25,28,31,34,42-undecaoxo-2-[[4-(trifluoromethyl)phenyl]methyl]spiro[1,4,7,10,16,19,22,26,29,32,35-undecazatricyclo[34.5.1.0^10,14]dotetracont-38-ene-17,1′-cyclopentane]-23-carboxamide]
[1]; SPR, KD ratio class
  NRAS/KRAS (ratio of KD value for GDP-bound NRAS wild-type protein to KD value for KRAS): A (a compound having 10 or more and less than 20 is denoted as A)
[2]; SPR, KD ratio class
  HRAS/KRAS (ratio of KD value for GDP-bound HRAS wild-type protein to KD value for KRAS): A (a compound having 10 or more and less than 20 is denoted as A)

## CC[C@H](C)[C@@H]1NC(=O)[C@H](C2CC2)N(C)C(=O)C[C@@H](C(=O)N(C)C)N(C)C(=O)[C@H](C2CCCC2)N(C)C(=O)C2(CCC2)N(C)C(=O)[C@@H]2C[C@@H](C)CN2C(=O)[C@H](CCc2cc(F)c(C(F)(F)F)c(F)c2)NC(=O)CN(C)C(=O)[C@H](Cc2ccc(C)cc2)N2CC/C=C\C[C@@H](C2=O)N(C)C(=O)CN(C)C1=O [PP1788]
[1]; KD ratio, GDP-bound NRAS wild-type vs GDP-bound KRAS wild-type, SPR
  NRAS/KRAS (ratio of KD value for NRAS to KD value for KRAS): B (a compound having 3 or more and less than 10 is denoted as B)
[2]; KD ratio, GDP-bound HRAS wild-type vs GDP-bound KRAS wild-type, SPR
  HRAS/KRAS (ratio of KD value for HRAS to KD value for KRAS): B (a compound having 3 or more and less than 10 is denoted as B)

## CCCN1C(=O)[C@@H]2CCN2C(=O)CN(C)C(=O)[C@H]([C@@H](C)CC)NC(=O)[C@H](CC(C)C)N(C)C(=O)C[C@@H](C(=O)N2CCOCC2)N(C)C(=O)[C@H](C2CCCC2)N(C)C(=O)C2(CCCC2)NC(=O)[C@@H]2CC(C)(C)CN2C(=O)[C@H](CCc2ccc(C(F)(F)F)c(Cl)c2)NC(=O)CN(C)C(=O)[C@@H]1Cc1ccc(C(F)(F)F)cc1 [PP0456] ([NMeL]I[Sar][Aze][NPrPhe(4-CF3)][Sar][hPhe(3-Cl-4-CF3)][Pro(4,4-Me2)][Ac5c][NMeGly(cPent)][NMeD]-Morpholide; lactam N-11)
[1]; KD ratio NRAS/KRAS, SPR
  NRAS/KRAS (ratio of KD value with respect to GDP-bound NRAS wild-type protein to KD value with respect to KRAS): C (A compound having a KD ratio of 0.1 or more and less than 3 is denoted as C)
[2]; KD ratio HRAS/KRAS, SPR
  HRAS/KRAS (ratio of KD value with respect to GDP-bound HRAS wild-type protein to KD value with respect to KRAS): C (A compound having a KD ratio of 0.1 or more and less than 3 is denoted as C)

## CCCN1C(=O)CN(C)C(=O)CN(C)C(=O)[C@H]([C@@H](C)CC)NC(=O)[C@H](CC(C)C)N(C)C(=O)C[C@@H](C(=O)N2CCOCC2)N(C)C(=O)[C@H](C2CCCC2)N(C)C(=O)C2(CCCC2)NC(=O)[C@@H]2CCCN2C(=O)[C@H](CCc2ccc(C(F)(F)F)c(Cl)c2)NC(=O)CN(C)C(=O)[C@@H]1C1CCCC1 [PP0061] ([NMeL]I[Sar][Sar][X5][Sar][hPhe(3-Cl-4-CF3)]P[Ac5c][NMeGly(cPent)][NMeD]-Morpholide; lactam N-11)
[1]; KD ratio NRAS/KRAS, SPR
  NRAS/KRAS (ratio of KD for GDP-bound NRAS wild-type to KD for KRAS): B (a compound having 3 or more and less than 10 is denoted as B)
[2]; KD ratio HRAS/KRAS, SPR
  HRAS/KRAS (ratio of KD for GDP-bound HRAS wild-type to KD for KRAS): C (A compound having a KD ratio of 0.1 or more and less than 3 is denoted as C)

## CC[C@H](C)[C@@H]1NC(=O)[C@H](COC)N(C)C(=O)C[C@@H](C(=O)N(C)CC)N(C)C(=O)[C@H](C2CCCC2)N(C)C(=O)C2(CC(C)(C)C2)NC(=O)[C@@H]2C[C@H](C)CN2C(=O)[C@H](CCc2cc(F)c(C(F)(F)F)c(F)c2)NC(=O)CN(C)C(=O)[C@H](Cc2ccc(C)cc2)N2CC/C=C\C[C@@H](C2=O)N(C)C(=O)CN(C)C1=O [PP2437]
[1]; SPR, GDP-bound NRAS wild-type vs GDP-bound KRAS wild-type
  NRAS/KRAS (ratio of KD value with respect to NRAS to KD value with respect to KRAS): A (a compound having 10 or more and less than 20 is denoted as A)
[2]; SPR, GDP-bound HRAS wild-type vs GDP-bound KRAS wild-type
  HRAS/KRAS (ratio of KD value with respect to HRAS to KD value with respect to KRAS): A (a compound having 10 or more and less than 20 is denoted as A)

## CC[C@H](C)[C@@H]1NC(=O)[C@H](CC(C)C)N(C)C(=O)C[C@@H](C(=O)N2CCOCC2)N(C)C(=O)[C@H](C2CCCC2)N(C)C(=O)C2(CCCC2)NC(=O)[C@@H]2CCCN2C(=O)[C@H](CCc2cc(F)c(C(F)(F)F)c(F)c2)NC(=O)CN(C)C(=O)[C@H](Cc2ccc(C(F)(F)F)cc2)N2CCCC[C@@H](C2=O)N(C)C(=O)CN(C)C1=O [PP0552]
[1]; KD ratio NRAS/KRAS, SPR
  NRAS/KRAS (ratio of KD value with respect to GDP-bound NRAS wild-type protein to KD value with respect to KRAS): B (a compound having 3 or more and less than 10 is denoted as B)
[2]; KD ratio HRAS/KRAS, SPR
  HRAS/KRAS (ratio of KD value with respect to GDP-bound HRAS wild-type protein to KD value with respect to KRAS): B (a compound having 3 or more and less than 10 is denoted as B)

## CCC(CC)[C@H]1C(=O)N(C)[C@H](C(=O)N(C)C)CC(=O)N(C)[C@@H](COC)C(=O)N[C@@H]([C@@H](C)CC)C(=O)N(C)CC(=O)N(C)[C@H]2C/C=C\CCN(C2=O)[C@@H](Cc2ccc(C)cc2)C(=O)N(C)CC(=O)N[C@@H](CCc2ccc(Cl)c(Cl)c2)C(=O)N2C[C@H](OC3CCC3)C[C@H]2C(=O)N(C)C2(CC(C)(C)C2)C(=O)N1C [PP2816]
[1]; KD ratio NRAS/KRAS, class symbols
  NRAS/KRAS (ratio of KD value with respect to GDP-bound NRAS wild-type protein to KD value with respect to KRAS): AA (a compound having 20 or more is denoted as AA)
[2]; KD ratio HRAS/KRAS, class symbols
  HRAS/KRAS (ratio of KD value with respect to GDP-bound HRAS wild-type protein to KD value with respect to KRAS): A (a compound having 10 or more and less than 20 is denoted as A)

## CCO[C@@H]1C[C@H]2C(=O)NC3(CCC(F)(F)CC3)C(=O)N(C)[C@@H](C3CCCC3)C(=O)N(C)[C@H](C(=O)N(C)C)CC(=O)N(C)[C@@H](C)C(=O)N[C@@H]([C@@H](C)CC)C(=O)N(C)CC(=O)N(C)[C@H]3CCCCCN(C3=O)[C@@H](Cc3ccc(C(F)(F)F)cc3)C(=O)N(C)CC(=O)N[C@@H](CCc3cc(F)c(C(F)(F)F)c(F)c3)C(=O)N2C1 [PP0725]
[1]; KD ratio NRAS/KRAS, SPR
  NRAS/KRAS (ratio of KD value with respect to GDP-bound NRAS wild-type protein to KD value with respect to KRAS): B (a compound having 3 or more and less than 10 is denoted as B)
[2]; KD ratio HRAS/KRAS, SPR
  HRAS/KRAS (ratio of KD value with respect to GDP-bound HRAS wild-type protein to KD value with respect to KRAS): B (a compound having 3 or more and less than 10 is denoted as B)
